Source: patent publication US12433876B2, “Septin inhibitors for treatment of cancers” (UNIVERSITY OF ROCHESTER, priority 2019, dated 2025)

Columns and labels:
septin-9 [1] = assay: Confocal analysis of septin-9 filament structure; format: cell-based
septin-7 = biological target: T1, septin-7 (Homo sapiens, UniProt Q16181); assay: Confocal analysis of septin-7; format: cell-based; details: PANC-1 cells
T1 construct: investigate the response of other septin family members in PANC-1 cells upon treatment with UR214-9; endogenous in cells; host or cells: PANC-1, JIMT-1, SKOV-3 (confocal); PANC-1 (immunoblot)
T1 sequence (Q16181 whole entry): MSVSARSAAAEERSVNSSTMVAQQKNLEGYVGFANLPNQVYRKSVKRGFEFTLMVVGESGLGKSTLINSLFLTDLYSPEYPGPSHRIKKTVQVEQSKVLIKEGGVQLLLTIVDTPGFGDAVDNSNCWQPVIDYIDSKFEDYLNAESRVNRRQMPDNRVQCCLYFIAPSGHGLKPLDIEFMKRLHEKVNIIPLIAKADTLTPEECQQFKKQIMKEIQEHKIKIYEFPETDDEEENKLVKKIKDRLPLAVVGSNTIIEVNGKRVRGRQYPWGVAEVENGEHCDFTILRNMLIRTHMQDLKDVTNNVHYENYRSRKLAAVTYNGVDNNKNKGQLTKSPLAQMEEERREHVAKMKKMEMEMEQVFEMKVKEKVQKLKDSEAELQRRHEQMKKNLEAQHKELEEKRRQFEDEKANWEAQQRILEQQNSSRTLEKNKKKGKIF

septin-6 = septin-6 (Homo sapiens, UniProt Q14141); assay: Confocal analysis of septin-6; format: cell-based; details: SKOV-3, 1 μM, 48 hours
septin-6, sequence (Q14141 whole entry): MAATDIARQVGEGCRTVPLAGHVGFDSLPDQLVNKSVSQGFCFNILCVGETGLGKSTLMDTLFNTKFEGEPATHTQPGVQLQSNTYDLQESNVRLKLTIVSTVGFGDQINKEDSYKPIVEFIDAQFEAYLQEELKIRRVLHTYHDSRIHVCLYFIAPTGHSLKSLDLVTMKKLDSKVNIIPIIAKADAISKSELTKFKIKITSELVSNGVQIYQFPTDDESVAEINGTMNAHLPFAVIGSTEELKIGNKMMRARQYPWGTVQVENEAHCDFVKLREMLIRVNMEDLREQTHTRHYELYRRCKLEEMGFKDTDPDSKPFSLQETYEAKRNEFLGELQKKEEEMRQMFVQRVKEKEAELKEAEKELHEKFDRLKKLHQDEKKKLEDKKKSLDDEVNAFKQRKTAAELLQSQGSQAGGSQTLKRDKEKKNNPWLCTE

actin = assay: Confocal analysis of actin filaments (Phalloidin-TRITC); format: cell-based; details: PANC-1 and JIMT1 cells, for 48 hours
septin-9 [2] = assay: Immunoblot of septin-9 expression; format: cell-based; details: 48 hours
BXPC-3 cells [3] = assay: Live/Dead dye flow cytometry, BXPC-3; format: cell-based, human; details: BXPC-3, 3 μM, 48 hours
Experimental: (§1) Cell Lines, Cell Culture, and Reagents. PANC-1, BXPC-3 and CAPAN-1, SKOV-3, MCF7, MDA-MD-231 cells were obtained from ATCC and maintained in DMEM, RPMI-1640 and IMDM supplemented with 10% fetal calf serum penicillin (100 units/mL), and streptomycin (100 μg/mL) at 37° C. with 5% CO2 in a humidified incubator. JIMT-1 cells were purchased from AddexBio Inc, USA (catalog number: C0006005) and maintained in 10% FBS and antibiotic supplemented DMEM. […] The reaction was monitored using thin-layer chromatography plates with DCM-MeOH or pure ethyl acetate as eluent. Spots were monitored in a UV chamber. […] ICM scores for each compound and their poses were calculated and compared with FCF. […] Cell viability of PANC-1, BXPC-3 and CAPAN-1 pancreatic cancer cells treated with UR214-9 was measured using the Cell Titre96R Aqueous One Solution Cell Proliferation Assay (Promega Corp., catalog number: G3580) following the procedure published earlier. […] The cells were analyzed by a 305 flow cytometer and relative live and dead cell population was calculated by inputting equal number of cells in both vehicle and control group.

PANC-1 cells = assay: Live/Dead dye flow cytometry, PANC-1; format: cell-based, human; details: PANC-1, 3 μM
Experimental: as §1

JIMT-1 cells [4] = assay: Live/Dead dye flow cytometry, JIMT-1; format: cell-based; details: JIMT-1, 3 μM, 48 hours, in vitro
Experimental: as §1

BXPC-3 cells [5] = assay: Cell cycle analysis (PI, flow cytometry), BXPC-3; format: cell-based, human; details: BXPC-3, 100 nM
Experimental: (§2) For cell cycle analysis, BXPC-3 and PANC-1 and JIMT-1 cells (100,000/well) were seeded overnight in a 6 well dishes and allowed to adhere overnight. Media was replaced with fresh complete medium supplemented with DMSO or UR214-9 (100 nM and 3 μM) and cells were incubated for 72 hours. The media containing the drugs was removed and cells were washed twice with PBS and trypsinized gently. The cells were collected in 15 mL tubes, complete DMEM media was added to block trypsin and cells were centrifuged. The supernatants were removed and cells were gently treated with 70% cold-EtOH for 30 minutes. The fixed cells were centrifuged and the pellets obtained were collected in flow cytometry tubes and stained with preformulated PI/RNase solution (Cell Signaling Technology, catalog number: 4087s) for 30 minutes. The PI content was analyzed using a flow cytometer. Data was processed using Flowjo software.

JIMT-1 cells [6] = assay: Cell cycle analysis (PI, flow cytometry), JIMT-1; format: cell-based; details: JIMT-1, 3 μM
Experimental: as §2

SKOV-3 xenograft tumors = assay: SKOV-3 xenograft tumor growth; format: in vivo, NSG mice
Experimental: NSG mice 356 were implanted in their left flank with 1 million PANC-1 (HER2+, n=12), JIMT1 (number of animals=10) and SKOV-3 (number of animals=10) cells each in matrigel:media (1:1). […] The vehicle formulation was: 40% Hydroxypropyl-beta-cyclodextrin [Acros Organics] & solutol HS15 (Sigma] in sterile water). 25 mg/kg equivalent of UR214-9 (1 uL=200 ug in DMSO) was dissolved in 600 uL PBS+400 uL of the vehicle and vortexed to obtain a clear suspension.

HER2 = assay: Immunoblot of HER2 expression, pancreatic and breast cancer cells; format: cell-based

septin-7 (confocal) (septin-7): reduced expression
septin-6 (confocal) (septin-6): decreased upon treatment
SMILES: O=C(Nc1cc(Cl)nc(Cl)c1)Nc1cccc(SC(F)(F)F)c1F [UR214-9]
septin-9 filament structures (septin-9 [1]; PANC-1 and JIMT-1 cells): clear disarrangement in septin-9 filament structures
septin-9 structure (septin-9 [1]; SKOV-3, 1 μM, 48 hours): reorganization of septin-9
actin filaments (actin): actin filament disruption
septin-9 protein expression levels (western blot) (septin-9 [2]; MDA-MB-231, JIMT-1 and MCF-7 cells, 10 and 30 μM): does not alter the protein expression levels
septin-9 expression (immunoblot) (septin-9 [2]; PANC-1, 1.0 and 10.0 μM): completely inhibited
dead cells (BXPC-3 cells [3]): 29.4%
dead-cell population (PANC-1 cells): over 38%
cell death (JIMT-1 cells [4]): increased cell death
cell cycle distribution (BXPC-3 cells [5]): no change in cell cycle distribution
cell cycle distribution (JIMT-1 cells [6]): G1 phase arrest
tumor growth during treatment (SKOV-3 xenograft tumors; UR214-9 25 mg/kg, M-F, I.P., trastuzumab 10 mg/kg, M): controlled the growth of tumors
weight of extracted tumors (SKOV-3 xenograft tumors; day 53 since inoculation): matched the average size seen in vehicle group
tumor size after treatments were stopped (SKOV-3 xenograft tumors; treatment stopped on day 27): reached the average size in control
HER2 expression (HER2; MDA-MB-231, JIMT-1 and MCF-7 cells, 10 and 30 μM, 24 hours): reduced HER2 expression
HER2 expression (HER2; PANC-1 (HER2+), 0.1, 1.0 and 10 μM, 72 hours): dose-dependent decrease in HER2 expression
